Results from patent US20250000843A1, “LIGNAN-INSPIRED COMPOUNDS, METHODS OF MAKING, AND USING THEREOF” (IOWAIBO, INC., priority 2023, published 2025).

Experiments:
[1] = test system: PC3, a human prostate cancer cell line; assay: MTT toxicity assay in PC3 prostate cancer cells; format: cell-based
Description: Toxicity of the dibenzyl butyl lactone derivative (3-[(3,4-dimethoxyphenyl)cyclopentyl], 4-[(3-hydroxyphenol)methyl]oxolan-2-one) in breast cancer cells was evaluated using MTT assay. The MTT toxicity test is a colorimetric assay to measure cells' metabolic activity by serving as a substrate of cellular enzymes that reduce the tetrazolium orange dye, MTT (3-(4,5-Dimethylthiazol-2-yl)-2,5-diphenyltetrazolium bromide) to its insoluble, formazan, giving a purple color. The rate of conversion is directly proportional to cells' mitochondrial metabolic activity via NAD (P) H-dependent cellular oxidoreductase enzymes and serves as a surrogate marker of cell viability.
Cells previously expanded were seeded in 96 well plates at 1.9×10^5 and 9.6×10^4 cells/plate for 24- and 72-hours treatment respectively. This concentration is known to show the best window for the MTT assay, with better sensitivity and low variability.
5 mg of powdered enterolactone, dibenzyl butyl lactone derivative enantiomer A, and dibenzyl butyl lactone derivative enantiomer B were dissolved in 500 μl of DMSO at room temperature. Eight-point curves, ⅓ dilutions (highest concentration 125 μM), were prepared.
Twenty-four hours following the seeding process, the cells were washed once with phosphate buffered saline (PBS) and treated with the respective compounds in cell culture media. Each condition was tested in triplicates. For positive and negative controls, 8 mM methyl methane sulfonate (MMS) and DMSO 100% were used respectively.
Following compound addition, the plates were incubated for 24 and 72 hours. After the treatment period, cells were washed twice with PBS and media was replaced with MTT reagent at 0.5 mg/ml in Dulbecco's modified Eagle medium (DMEM) without phenol red. The plates were gently shaken and incubated for 4 hours. After the incubation the medium was removed and replaced by DMSO. The plates were gently shaken to solubilize the formazan crystals. Absorbance was measured using an Envision multiplate reader at a wavelength of 570 nm.
Toxicity of the dibenzyl butyl lactone derivative (3-[(3,4-dimethoxyphenyl)cyclopentyl], 4-[(3-hydroxyphenol)methyl]oxolan-2-one) in prostate cancer cells was evaluated using MTT assay. The same methods as those used in Example 2 were employed, except the cell line used was PC3, a human prostate cancer cell line, and cell cultures were established in Kaighn's modification of Ham's […] medium.
MTT assay results are shown in Tables 16-21 and expressed as the percentage of cell death after treatment.

[2] = test system: human induced pluripotent stem (iPS) cells; format: cell-based; settings: human
Description: The dibenzyl butyl lactone derivative enantiomer A and B were compared to enterolactone and tested to determine toxicity using a human pluripotent stem (hPS) cell-based assay that predicts the developmental toxicity potential. […] The current study was conducted using human induced pluripotent stem (iPS) cells.
The impact of test article exposure on ornithine and cystine metabolism in human induced pluripotent stem (iPS) cells was measured for three test articles (dibenzyl butyl lactone derivative enantiomer A, dibenzyl butyl lactone derivative enantiomer B, and enterolactone) and prediction of the potential for developmental toxicity was made through application of the hPS cell-based assay. Exposure spanned a range of eight treatment levels per test article ranging from 0.03-100 μM.
The observed decrease in the o/c ratio following exposure to each test article is indicative of the potential for developmental toxicity and/or embryo lethality in vivo at or above the dTP concentration. FIGS. 15A-C show the o/c ratio of dibenzyl butyl lactone derivative enantiomer A (FIG. 15A), dibenzyl butyl lactone derivative enantiomer B (FIG. 15B), and (+/−) enterolactone (FIG. 15C). The graphs in FIGS. 15A-C show the cell viability and o/c/ ratio over concentrations of 0.03-100 μM with the straight horizontal line illustrating the developmental toxicity threshold of 0.85.

SMILES: O=C1OCC(Cc2ccc3c(c2)OCO3)/C1=C\c1cccc(O)c1 (single isomer, unassigned) [Enantiomer A, 3-[(3,4-dimethoxyphenyl)cyclopentyl], 4-[(3-hydroxyphenol)methyl]oxolan-2-one]
- Cell death #1 (%) ([1]; PC3, 24 hours, 0.06 μM): −10.92%
- Cell death #2 (%) ([1]; PC3, 24 hours, 0.06 μM): −13.82%
- Cell death #3 (%) ([1]; PC3, 24 hours, 0.06 μM): −11.02%
- Cell death (%) MEAN ([1]; PC3, 24 hours, 0.06 μM): −11.92%
- Cell death #1 (%) ([1]; PC3, 24 hours, 0.17 μM): −27.17%
- Cell death #2 (%) ([1]; PC3, 24 hours, 0.17 μM): −17.50%
- Cell death #3 (%) ([1]; PC3, 24 hours, 0.17 μM): −8.79%
- Cell death (%) MEAN ([1]; PC3, 24 hours, 0.17 μM): −17.82%
- Cell death #1 (%) ([1]; PC3, 24 hours, 0.51 μM): −2.70%
- Cell death #2 (%) ([1]; PC3, 24 hours, 0.51 μM): −15.18%
- Cell death #3 (%) ([1]; PC3, 24 hours, 0.51 μM): −10.44%
- Cell death (%) MEAN ([1]; PC3, 24 hours, 0.51 μM): −9.44%
- Cell death #1 (%) ([1]; PC3, 24 hours, 1.54 μM): −29.20%
- Cell death #2 (%) ([1]; PC3, 24 hours, 1.54 μM): −24.37%
- Cell death #3 (%) ([1]; PC3, 24 hours, 1.54 μM): −23.78%
- Cell death (%) MEAN ([1]; PC3, 24 hours, 1.54 μM): −25.78%
- Cell death #1 (%) ([1]; PC3, 24 hours, 4.63 μM): −17.98%
- Cell death #2 (%) ([1]; PC3, 24 hours, 4.63 μM): −21.37%
- Cell death #3 (%) ([1]; PC3, 24 hours, 4.63 μM): −15.27%
- Cell death (%) MEAN ([1]; PC3, 24 hours, 4.63 μM): −18.21%
- Cell death #1 (%) ([1]; PC3, 24 hours, 13.89 μM): −26.49%
- Cell death #2 (%) ([1]; PC3, 24 hours, 13.89 μM): −20.40%
- Cell death #3 (%) ([1]; PC3, 24 hours, 13.89 μM): −18.56%
- Cell death (%) MEAN ([1]; PC3, 24 hours, 13.89 μM): −21.82%
- Cell death #1 (%) ([1]; PC3, 24 hours, 41.67 μM): −6.18%
- Cell death #2 (%) ([1]; PC3, 24 hours, 41.67 μM): −0.76%
- Cell death #3 (%) ([1]; PC3, 24 hours, 41.67 μM): −12.85%
- Cell death (%) MEAN ([1]; PC3, 24 hours, 41.67 μM): −6.60%
- Cell death #1 (%) ([1]; PC3, 24 hours, 125.00 μM): 32.42%
- Cell death #2 (%) ([1]; PC3, 24 hours, 125.00 μM): 28.74%
- Cell death #3 (%) ([1]; PC3, 24 hours, 125.00 μM): 33.00%
- Cell death (%) MEAN ([1]; PC3, 24 hours, 125.00 μM): 31.39%
- Cell death #1 (%) ([1]; PC3, 72 hours, 0.06 μM): −39.43%
- Cell death #2 (%) ([1]; PC3, 72 hours, 0.06 μM): −40.43%
- Cell death #3 (%) ([1]; PC3, 72 hours, 0.06 μM): −33.95%
- Cell death (%) MEAN ([1]; PC3, 72 hours, 0.06 μM): −37.94%
- Cell death #1 (%) ([1]; PC3, 72 hours, 0.17 μM): −43.42%
- Cell death #2 (%) ([1]; PC3, 72 hours, 0.17 μM): −40.55%
- Cell death #3 (%) ([1]; PC3, 72 hours, 0.17 μM): −38.31%
- Cell death (%) MEAN ([1]; PC3, 72 hours, 0.17 μM): −40.76%
- Cell death #1 (%) ([1]; PC3, 72 hours, 0.51 μM): −63.73%
- Cell death #2 (%) ([1]; PC3, 72 hours, 0.51 μM): −69.58%
- Cell death #3 (%) ([1]; PC3, 72 hours, 0.51 μM): −63.23%
- Cell death (%) MEAN ([1]; PC3, 72 hours, 0.51 μM): −65.51%
- Cell death #1 (%) ([1]; PC3, 72 hours, 1.54 μM): −46.91%
- Cell death #2 (%) ([1]; PC3, 72 hours, 1.54 μM): −52.39%
- Cell death #3 (%) ([1]; PC3, 72 hours, 1.54 μM): −53.51%
- Cell death (%) MEAN ([1]; PC3, 72 hours, 1.54 μM): −50.94%
- Cell death #1 (%) ([1]; PC3, 72 hours, 4.63 μM): −76.31%
- Cell death #2 (%) ([1]; PC3, 72 hours, 4.63 μM): −66.59%
- Cell death #3 (%) ([1]; PC3, 72 hours, 4.63 μM): −54.63%
- Cell death (%) MEAN ([1]; PC3, 72 hours, 4.63 μM): −65.85%
- Cell death #1 (%) ([1]; PC3, 72 hours, 13.89 μM): −45.54%
- Cell death #2 (%) ([1]; PC3, 72 hours, 13.89 μM): −47.91%
- Cell death #3 (%) ([1]; PC3, 72 hours, 13.89 μM): −30.21%
- Cell death (%) MEAN ([1]; PC3, 72 hours, 13.89 μM): −41.22%
- Cell death #1 (%) ([1]; PC3, 72 hours, 41.67 μM): 9.78%
- Cell death #2 (%) ([1]; PC3, 72 hours, 41.67 μM): 23.24%
- Cell death #3 (%) ([1]; PC3, 72 hours, 41.67 μM): 14.02%
- Cell death (%) MEAN ([1]; PC3, 72 hours, 41.67 μM): 15.68%
- Cell death #1 (%) ([1]; PC3, 72 hours, 125.00 μM): 75.56%
- Cell death #2 (%) ([1]; PC3, 72 hours, 125.00 μM): 74.94%
- Cell death #3 (%) ([1]; PC3, 72 hours, 125.00 μM): 74.82%
- Cell death (%) MEAN ([1]; PC3, 72 hours, 125.00 μM): 75.11%
- prostate cancer cell death as compared to enterolactone ([1]; PC3, at higher concentrations, 24 hours and 72 hours post-treatment): increased prostate cancer cell death as compared to enterolactone
- TP Concentration [2]: 34.8 µM
- TP concentration, fold lower than (+/−) enterolactone TP [2]: 4-6 fold
- dTP Concentration [2]: 21.4 µM
- dTP and TP concentrations compared with anti-cancer drugs tested in this assay [2]: higher than >90% of the anti-cancer drugs
- fold difference between dTP and TP [2]: ≤ 3 fold
- similarity of dTP concentrations between all three compounds [2]: ≤ 2 fold
